Data: patent USRE39634E1, “Bisarylimidazoly fatty acid amide hydrolase inhibitors” (Bristol-Myers Squibb Company, priority 2001, dated 2007)

Assays:
[1] = tested on: animals with a neuropathic injury; test: Chung model of neuropathic pain; assay type: in vivo
From the text: FIG. 3 illustrates results from the Chung Model used for measuring neuropathic pain. The single asterisk (*) applies when p is less than 0.05 whereas the double asterisk (**) applies when p is less than 0.01. n=9-10.

[2] = molecular target: T1, human FAAH (Homo sapiens, UniProt O00519); test: Determination of FAAH activity (membrane homogenates of H4-FAAH cells, [3H]-anandamide hydrolysis); assay type: biochemical; conditions: transfected human FAAH, H4-FAAH cell membranes, 10 μM anandamide, room temperature, one hour
T1 construct: expressed in transfected cells; host or cells: H4 cells stably transfected with human FAAH (Geneticin selection); crude membrane homogenates
T1 sequence (O00519 1-579): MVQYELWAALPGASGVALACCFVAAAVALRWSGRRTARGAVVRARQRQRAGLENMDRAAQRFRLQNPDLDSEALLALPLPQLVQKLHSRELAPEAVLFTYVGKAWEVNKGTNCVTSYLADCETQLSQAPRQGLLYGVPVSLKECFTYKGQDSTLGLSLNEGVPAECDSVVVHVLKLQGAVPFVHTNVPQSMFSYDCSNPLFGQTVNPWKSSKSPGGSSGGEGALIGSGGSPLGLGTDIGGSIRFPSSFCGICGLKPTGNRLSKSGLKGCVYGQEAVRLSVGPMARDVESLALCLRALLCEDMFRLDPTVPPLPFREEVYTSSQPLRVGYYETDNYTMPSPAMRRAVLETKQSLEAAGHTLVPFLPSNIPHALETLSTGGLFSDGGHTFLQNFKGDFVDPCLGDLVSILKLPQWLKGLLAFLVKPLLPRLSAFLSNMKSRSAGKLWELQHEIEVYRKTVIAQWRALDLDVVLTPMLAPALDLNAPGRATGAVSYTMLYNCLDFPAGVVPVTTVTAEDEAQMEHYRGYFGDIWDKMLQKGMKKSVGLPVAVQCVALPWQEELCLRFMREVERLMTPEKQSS
Procedure: Homogenates of crude membranes were prepared from H4 cells that express transfected human FAAH (H4-FAAH cells). Briefly, cells were grown in DMEM supplemented with 10% FBS and Geneticin at a final concentration of 500 μg/ml (Gibco BRL, Rockville, Md.). Confluent cultures of H4-FAAH cells were rinsed twice with phosphate-buffered saline [138 mM NaCl, 4.1 mM KCl, 5.1 mM Na2PO4, 1.5 mM KH2PO4 (pH 7.5), 37° C.] and incubated for 5-10 min. at 4° C. in lysis buffer [1 mM sodium bicarbonate]. Cells were transferred from plates to polypropylene tubes (16×100 mm), homogenized and centrifuged at 32,000×g for 30 min. Pellets were resuspended by homogenization in lysis buffer and centrifuged at 32,000×g for 30 min. Pellets were resuspended in lysis buffer (15-20 μg protein/ml) then stored at −80° C. until needed. On the day of an experiment, membranes were diluted to 2.67 μg protein/ml in 125 mM Tris-Cl, pH 9.0
Activity of FAAH was measured using a modification of the method described by Omeir et al., 1995 (Life Sci 56:1999, 1995). Membrane homogenates (240 ng protein) were incubated at room temperature for one hour with 1.67 nM anandamide [ethanolamine 1-^3H] (American Radiolabeled Chemical Inc., St Louis, Mo.) and 10 μM anandamide (Sigma/RBI, St. Louis, Mo.) in the absence and presence of inhibitors. The reaction was stopped by the addition of 1 volume of a solution of methanol and dichloroethane (1:1). The mixture was shaken and then centrifuged at 1000×g for 15 min. to separate the aqueous and organic phases. An aliquot of the aqueous phase, containing [^3H]-ethanolamine was withdrawn and counted by scintillation spectroscopy. Data were expressed as the percentage of [^3H]-ethanolamine formed versus vehicle, after subtraction of the background radioactivity determined in the presence of 10 μM arachidonyl trifluoromethyl ketone (ATFMK), an inhibitor of FAAH. IC50 values were determined using a four-parameter logistic equation for dose-response curves.

[3] = tested on: animals; test: Hargreaves Test (acute thermal pain); assay type: in vivo; conditions: FIG. 2
From the text: FIG. 2 illustrates results from the Hargreaves Test used for measuring acute thermal pain. The single asterisk (*) applies when p is less than 0.05 whereas the double asterisk (**) applies when p is less than 0.01. n=6.

[4] = tested on: rat; test: Rat formalin test (acute and chronic chemo-induced pain); assay type: in vivo
Procedure: FIG. 1A illustrates results from a rat formalin model used for testing acute chemo-induced pain. The single asterisk (*) applies when p is less than 0.05.
FIG. 1B illustrates results from a rat formalin model used for testing chronic chemo-induced pain. The single asterisk (*) applies when p is less than 0.05.
In FIG. 1., example 1, was active in phase I (acute phase) and phase II (chronic phase) of the rat formalin test. In animals that received 25 mg/kg, i.v, of Example 1, the number of paw flinches was reduced by nearly 40% in the first 10 minutes after administration of formalin. Paw flinches were reduced by approximately 30% over the following 50 minutes.

For Cc1nc(-c2ccccc2)c(-c2ccccc2)n1CCCCCCNC(=O)Oc1ccccc1F [Example 1, [6-(2-Methyl-4,5-diphenyl-imidazol-1-yl)-hexyl]-carbamic acid 2-fluoro-phenyl ester], the “onset of anti-neuropathic effect” value ([1]; 20 mg/kg, versus 100 mg/kg gabapentin) was “earlier onset of action compared to 100 mg/kg gabapentin”, the “threshold for withdrawal of the injured paw” value ([1]; light touch stimulus, FIG. 3) was “increased (toward normal) in a dose-dependent fashion” and the IC50 [2] was less than 10 nM. The “latency to paw withdrawal” value [3] was “increased significantly”, the “reduction of number of paw flinches” value ([4]; 25 mg/kg, i.v., first 10 minutes after administration of formalin) was roughly 40% and the “reduction of paw flinches” value ([4]; 25 mg/kg, i.v., following 50 minutes) was “approximately 30%”. The “activity in phase I (acute phase) and phase II (chronic phase) of the rat formalin test” value ([4]; FIG. 1) was “active”.
With Cc1nc(-c2ccccc2)c(-c2ccccc2)n1CCCCCC(C)NC(=O)Oc1ccccc1F (centres unmarked) [Example 71, [1-Methyl-6-(2-methyl-4,5-diphenyl-imidazol-1-yl)-hexyl]-carbamic acid 2-fluoro-phenyl ester] the IC50 [2] was less than 10 nM.
In the case of CCC(CCCCCn1c(C)nc(-c2ccccc2)c1-c1ccccc1)NC(=O)Oc1ccccc1F (centres unmarked) [Example 72, [1-Ethyl-6-(2-methyl-4,5-diphenyl-imidazol-1-yl)-hexyl]-carbamic acid 2-fluoro-phenyl ester], the IC50 [2] is reported as 10 to 100 nM.
Work on Cc1nc(-c2ccccc2)c(-c2ccccc2)n1CCCCCC(NC(=O)Oc1ccccc1F)C(C)C (centres unmarked) [Example 73, [1-Isopropyl-6-(2-methyl-4,5-diphenyl-imidazol-1-yl)-hexyl]-carbamic acid 2-fluoro-phenyl ester] yielded an IC50 [2] of 100 to 1000 nM.
Compound Cc1nc(-c2ccccc2)c(-c2ccccc2)n1CCCCCC(NC(=O)Oc1ccccc1F)c1ccccc1 (centres unmarked) [Example 74, [6-(2-Methyl-4,5-diphenyl-imidazol-1-yl)-1-phenyl-hexyl]-carbamic acid 2-fluoro-phenyl ester] has an IC50 [2] of 100 to 1000 nM.
